What was measured:
Format in all cases: biochemical
Recombinant human JAK1 = target: T1, Recombinant human JAK1 (Homo sapiens, UniProt P23458); assay: JAK1 Ulight-JAK1 peptide assay; conditions: Ulight-JAK1(tyr1023) peptide, 7 μM ATP
T1 construct: catalytic domain (amino acids 866-1154; catalog number PV4774); purchased Invitrogen PV4774
Experimental: Recombinant human JAK1 (catalytic domain, amino acids 866-1154; catalog number PV4774) was purchased from Invitrogen. 1 ng of JAK1 was incubated with 20 nM Ulight-JAK1(tyr1023) peptide (Perkin Elmer catalog number TRF0121) in kinase reaction buffer (25 mM MOPS pH6.8, 0.01% Brij-35, 5 mM MgCl2, 2 mM DTT, 7 μM ATP) with or without 4 μL containing test compound or vehicle (DMSO, 1% final concentration), in a total volume of 20 μL, in a white 384 Opti plate (Perkin Elmer, catalog number 6007290). After 60 min at room temperature, reactions were stopped by adding 20 μL/well of detection mixture (1× detection buffer (Perkin Elmer, catalog number CR97-100C), 0.5 nM Europium-anti-phosphotyrosine (PT66) (Perkin Elmer, catalog number AD0068), 10 mM EDTA). Readout is performed using the Envision with excitation at 320 nm and measuring emission at 615 nm (Perkin Elmer). Kinase activity was calculated by subtracting relative fluorescence units (RFU) obtained in the presence of a positive control inhibitor (10 μM staurosporine) from RFU obtained in the presence of vehicle. The ability of a test compound to inhibit this activity was determined as: Percentage inhibition=((RFU determined for sample with test compound present−RFU determined for sample with positive control inhibitor)divided by(RFU determined in the presence of vehicle−RFU determined for sample with positive control inhibitor))*100.
(§1) Dose dilution series were prepared for the compounds enabling the testing of dose-response effects in the JAK1 assay and the calculation of the IC50 for the compound. Each compound is routinely tested at concentration of 20 μM followed by a ⅕ serial dilution, 10 points in a final concentration of 1% DMSO. When potency of compound series increases, more dilutions are prepared and/or the top concentration are lowered (e.g. 5 μM, 1 μM). The data are expressed as the average IC50 from the assays±standard error of the mean.

Recombinant human JAK2 = target: T2, Recombinant human JAK2 (Homo sapiens, UniProt O60674); assay: JAK2 Ulight-JAK1 peptide assay; conditions: Ulight-JAK1(tyr1023) peptide, 7.5 μM ATP
T2 construct: catalytic domain (amino acids 808-1132; catalog number PV4210); GST; purchased Invitrogen PV4210
T2 sequence (O60674 808-1132): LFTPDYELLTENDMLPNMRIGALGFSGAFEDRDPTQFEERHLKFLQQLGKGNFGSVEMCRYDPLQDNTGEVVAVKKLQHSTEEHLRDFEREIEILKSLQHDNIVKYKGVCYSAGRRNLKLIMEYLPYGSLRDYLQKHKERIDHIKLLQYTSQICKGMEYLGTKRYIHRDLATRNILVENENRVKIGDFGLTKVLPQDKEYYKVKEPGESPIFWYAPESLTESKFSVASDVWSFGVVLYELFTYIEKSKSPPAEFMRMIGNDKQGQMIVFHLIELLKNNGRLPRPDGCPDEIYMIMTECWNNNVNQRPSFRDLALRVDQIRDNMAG
Experimental: Recombinant human JAK2 (catalytic domain, amino acids […]; catalog number PV4210) was purchased from Invitrogen. 0.0125 mU of JAK2 was incubated with 25 nM Ulight-JAK1(tyr1023) peptide (Perkin Elmer catalog number TRF0121) in kinase reaction buffer (25 mM HEPES pH7.0, 0.01% Triton X-100, 7.5 mM MgCl2, 2 mM DTT, 7.5 μM ATP) with or without 4 μL containing test compound or vehicle (DMSO, 1% final concentration), in a total volume of 20 μL, in a white 384 Opti plate (Perkin Elmer, catalog number 6007290). After 60 min at room temperature, reactions were stopped by adding 20 μL/well of detection mixture (1× detection buffer (Perkin Elmer, catalog number CR97-100C), 0.5 nM Europium-anti-phosphotyrosine (PT66) (Perkin Elmer, catalog number AD0068), 10 mM EDTA). Readout is performed using the Envision with excitation at 320 nm and measuring emission at 615 nm (Perkin Elmer). Kinase activity was calculated by subtracting relative fluorescence units (RFU) obtained in the presence of a positive control inhibitor (10 μM staurosporine) from RFU obtained in the presence of vehicle. The ability of a test compound to inhibit this activity was determined as: Percentage inhibition=((RFU determined for sample with test compound present−RFU determined for sample with positive control inhibitor)divided by(RFU determined in the presence of vehicle−RFU determined for sample with positive control inhibitor))*100.
as §1, with “each compound” for “the compounds”, “JAK2” for “JAK1”

[1] = target: T3, Recombinant human JAK3 catalytic domain (Homo sapiens, UniProt P52333); assay: JAK3 inhibition assay; conditions: polyGT substrate, 33P-gamma-ATP filter assay, 1 μM ATP
T3 construct: catalytic domain (amino acids 795-1124; catalog number 08-046); purchased Carna Biosciences 08-046
T3 sequence (P52333 795-1124): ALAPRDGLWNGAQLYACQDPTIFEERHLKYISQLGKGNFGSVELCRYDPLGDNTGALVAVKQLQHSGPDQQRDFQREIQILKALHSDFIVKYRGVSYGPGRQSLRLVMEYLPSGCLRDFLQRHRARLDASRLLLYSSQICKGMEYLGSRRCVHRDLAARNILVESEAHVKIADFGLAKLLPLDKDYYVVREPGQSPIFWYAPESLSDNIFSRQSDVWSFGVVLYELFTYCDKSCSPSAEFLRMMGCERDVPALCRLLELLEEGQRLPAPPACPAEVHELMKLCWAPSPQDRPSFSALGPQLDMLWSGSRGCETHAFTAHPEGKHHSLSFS
Experimental: Recombinant human JAK3 catalytic domain (amino acids 795-1124; catalog number 08-046) was purchased from Carna Biosciences. 0.5 ng JAK3 protein was incubated with 2.5 μg polyGT substrate (Sigma catalog number P0275) in kinase reaction buffer (25 mM Tris pH 7.5, 0.5 mM EGTA, 10 mM MgCl2, 2.5 mM DTT, 0.5 mM Na3VO4, 5 mM b-glycerolphosphate, 0.01% Triton X-100, 1 μM non-radioactive ATP, 0.25 μCi ^33P-gamma-ATP (Perkin Elmer, catalog number NEG602K001MC) final concentrations) with or without 5 μL containing test compound or vehicle (DMSO, 1% final concentration), in a total volume of 25 μL, in a polypropylene 96-well plate (Greiner, V-bottom). After 45 min at 30° C., reactions were stopped by adding 25 μL/well of 150 mM phosphoric acid. All of the terminated kinase reaction was transferred to prewashed (75 mM phosphoric acid) 96 well filter plates (Perkin Elmer catalog number 6005177) using a cell harvester (Perkin Elmer). Plates were washed 6 times with 300 μL per well of a 75 mM phosphoric acid solution and the bottom of the plates was sealed. 40 μL/well of Microscint-20 was added, the top of the plates was sealed and readout was performed using the Topcount (Perkin Elmer). Kinase activity was calculated by subtracting counts per min (cpm) obtained in the presence of a positive control inhibitor (10 μM staurosporine) from cpm obtained in the presence of vehicle. The ability of a test compound to inhibit this activity was determined as: Percentage inhibition=((cpm determined for sample with test compound present−cpm determined for sample with positive control inhibitor)divided by(cpm determined in the presence of vehicle−cpm determined for sample with positive control inhibitor))*100.
Dose dilution series were prepared for the compounds enabling the testing of dose-response effects in the JAK3 assay and the calculation of the IC50 for each compound. Each compound was routinely tested at concentration of 20 μM followed by a ⅕ serial dilution, 10 points in a final concentration of 1% DMSO. When potency of compound series increased, more dilutions were prepared and/or the top concentration was lowered (e.g. 5 μM, 1 μM).

T1 sequence (P23458 866-1154): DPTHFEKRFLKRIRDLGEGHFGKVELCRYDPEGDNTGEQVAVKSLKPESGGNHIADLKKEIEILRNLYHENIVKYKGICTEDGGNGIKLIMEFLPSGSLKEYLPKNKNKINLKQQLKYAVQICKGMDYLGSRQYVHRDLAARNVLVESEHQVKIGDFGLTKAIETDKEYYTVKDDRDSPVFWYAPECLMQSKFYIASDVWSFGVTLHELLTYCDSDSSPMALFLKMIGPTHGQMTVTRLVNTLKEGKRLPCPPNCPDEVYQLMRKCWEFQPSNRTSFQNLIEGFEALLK

SMILES | IC50 (Recombinant human JAK1) | IC50 (Recombinant human JAK2) | IC50 [1]
O=C(Nc1cc2c(-c3ccc(OCc4ccccc4)cc3)cccn2n1)C1CC1 [Compound 2, N-(4-(4-(benzyloxy)phenyl)pyrazolo[1,5-a]pyridin-2-yl)cyclopropanecarboxamide] | 101 to 500 nM | 101 to 500 nM | 0.01 to 100 nM
O=C(Nc1cc2c(-c3ccc4c(ccn4Cc4ccccc4)c3)cccn2n1)C1CC1 [Compound 3, N-(4-(1-benzyl-1H-indol-5-yl)pyrazolo[1,5-a]pyridin-2-yl)cyclopropanecarboxamide] | > 1000 nM | 101 to 500 nM | 0.01 to 100 nM
O=C(NCCc1ccccc1)c1ccc(-c2cccn3nc(NC(=O)C4CC4)cc23)cc1 [Compound 5, 4-(2-(cyclopropanecarboxamido)pyrazolo[1,5-a]pyridin-4-yl)-N-phenethylbenzamide] | 0.01 to 100 nM | 0.01 to 100 nM | > 1000 nM
O=C(NCCOc1ccccc1)c1ccc(-c2cccn3nc(NC(=O)C4CC4)cc23)cc1 [Compound 6, 4-(2-(cyclopropanecarboxamido)pyrazolo[1,5-a]pyridin-4-yl)-N-(2-phenoxyethyl)benzamide] | 0.01 to 100 nM | 0.01 to 100 nM | 0.01 to 100 nM
COc1ccc(-c2cccn3nc(NC(=O)C4CC4)c(-c4ccccc4)c23)cc1 [Compound 7, N-(4-(4-methoxyphenyl)-3-phenylpyrazolo[1,5-a]pyridin-2-yl)cyclopropanecarboxamide] | > 1000 nM | > 1000 nM | > 1000 nM
O=C(Nc1cc2c(-c3ccc(OCc4cccnc4)cc3)cccn2n1)C1CC1 [Compound 8, N-(4-(4-(pyridin-3-ylmethoxy)phenyl)pyrazolo[1,5-a]pyridin-2-yl)cyclopropanecarboxamide] |  |  | 101 to 500 nM
N#Cc1ccc(COc2ccc(-c3cccn4nc(NC(=O)C5CC5)cc34)cc2)cn1 [Compound 9, N-(4-(4-((6-cyanopyridin-3-yl)methoxy)phenyl)pyrazolo[1,5-a]pyridin-2-yl)cyclopropanecarboxamide] | 0.01 to 100 nM | 0.01 to 100 nM | 0.01 to 100 nM
O=C(Nc1nn2cccc(-c3ccc(CN4CCS(=O)(=O)CC4)cc3)c2c1Br)C1CC1 [Compound 12, Cyclopropanecarboxylic acid {4-[4-(1,1-dioxo-thiomorpholin-4-ylmethyl)-phenyl]-3-bromo-pyrazolo[1,5-a]pyridin-2-yl}-amide] | 0.01 to 100 nM | 0.01 to 100 nM | 101 to 500 nM
O=C(Nc1nn2cccc(-c3ccc(CN4CCS(=O)(=O)CC4)cc3)c2c1Cl)C1CC1 [Compound 13, Cyclopropanecarboxylic acid {4-[4-(1,1-dioxo-thiomorpholin-4-ylmethyl)-phenyl]-3-chloro-pyrazolo[1,5-a]pyridin-2-yl}-amide] | 0.01 to 100 nM | 0.01 to 100 nM | 101 to 500 nM

The remaining lines, values ahead:

IC50 (Recombinant human JAK1) | IC50 (Recombinant human JAK2) | IC50 [1] | SMILES
0.01 to 100 nM | 0.01 to 100 nM | 0.01 to 100 nM | COc1ccc(-c2cccn3nc(NC(=O)C4CC4)cc23)cc1 [Compound 1, N-(4-(4-methoxyphenyl)pyrazolo[1,5-a]pyridin-2-yl)cyclopropanecarboxamide]
101 to 500 nM | 0.01 to 100 nM | 0.01 to 100 nM | O=C(Nc1cc2c(-c3ccc4[nH]ccc4c3)cccn2n1)C1CC1 [Compound 4, N-(4-(1H-indol-5-yl)pyrazolo[1,5-a]pyridin-2-yl)cyclopropanecarboxamide]
0.01 to 100 nM | 0.01 to 100 nM | 0.01 to 100 nM | O=C(Nc1cc2c(-c3ccc(CN4CCS(=O)(=O)CC4)cc3)cccn2n1)C1CC1 [Compound 10, Cyclopropanecarboxylic acid {4-[4-(1,1-dioxo-thiomorpholin-4-ylmethyl)-phenyl]-pyrazolo[1,5-a]pyridin-2-yl}-amide]
0.01 to 100 nM | 0.01 to 100 nM | 0.01 to 100 nM | O=C(Nc1nn2cccc(-c3ccc(CN4CCS(=O)(=O)CC4)cc3)c2c1F)C1CC1 [Compound 11, Cyclopropanecarboxylic acid {4-[4-(1,1-dioxo-thiomorpholin-4-ylmethyl)-phenyl]-3-fluoro-pyrazolo[1,5-a]pyridin-2-yl}-amide]
0.01 to 100 nM | 0.01 to 100 nM | 101 to 500 nM | O=C(Nc1cc2c(-c3ccc(C(=O)N4CCCCC4)cc3)cccn2n1)C1CC1 [Compound 14, Cyclopropanecarboxylic acid {4-[4-(piperidine-1-carbonyl)-phenyl]-pyrazolo[1,5-a]pyridin-2-yl}-amide]
0.01 to 100 nM | 0.01 to 100 nM | 0.01 to 100 nM | CS(=O)(=O)N1CCN(Cc2ccc(-c3cccn4nc(NC(=O)C5CC5)cc34)cc2)CC1 [Compound 15, N-(4-(4-((4-(methylsulfonyl)piperazin-1-yl)methyl)phenyl)pyrazolo[1,5-a]pyridin-2-yl)cyclopropanecarboxamide]
0.01 to 100 nM | 0.01 to 100 nM | 101 to 500 nM | CS(=O)(=O)C1CCN(Cc2ccc(-c3cccn4nc(NC(=O)C5CC5)cc34)cc2)CC1 [Compound 17, N-(4-(4-((4-(methylsulfonyl)piperidin-1-yl)methyl)phenyl)pyrazolo[1,5-a]pyridin-2-yl)cyclopropanecarboxamide]
0.01 to 100 nM | 0.01 to 100 nM | 101 to 500 nM | CS(=O)(=O)C1CCN(Cc2ccc(-c3cccn4nc(NC(=O)C5CC5)cc34)cc2F)CC1 [Compound 18, N-(4-(3-fluoro-4-((4-(methylsulfonyl)piperidin-1-yl)methyl)phenyl)pyrazolo[1,5-a]pyridin-2-yl)cyclopropanecarboxamide]
0.01 to 100 nM | 501 to 1000 nM | > 1000 nM | CS(=O)(=O)C1CCN(Cc2ccc(-c3cccn4nc(NC(=O)C5CC5)c(Cl)c34)cc2)CC1 [Compound 19, N-(3-chloro-4-(4-((4-(methylsulfonyl)piperidin-1-yl)methyl)phenyl)pyrazolo[1,5-a]pyridin-2-yl)cyclopropanecarboxamide]

Reference: US8975406B2, “Compound useful for the treatment of degenerative and inflammatory diseases” (Galapagos N.V., priority 2011, dated 2015)
